Data published in patent US20070185014A1, “Methods and compositions for modulating conjunctival goblet cells” (The Schepens Eye Research Institute, Inc., priority 2006, published 2007).

Columns and labels:
[1] = tested on: rat conjunctival goblet cells; assay: Goblet cell proliferation, WST tetrazolium assay (Example 3A, Fluorescence Assay); assay type: cell-based; conditions: for goblet cell proliferation, Ave. fold / goblet cell proliferation, fold of basal, rat101 / goblet cell proliferation, fold of basal, rat102 / goblet cell proliferation, fold of basal, rat103: 24 hrs; for goblet cell proliferation, Ave. fold: average of 3 rats; for goblet cell proliferation, fold of basal, rat101: cells from rat101; for goblet cell proliferation, fold of basal, rat102: cells from rat102; for goblet cell proliferation, fold of basal, rat103: cells from rat103; for stimulation of goblet cell proliferation compared to control (no additions): 10^−7 M
Source text: Conjunctival tissue from the fomical area and the nictitating membranes were removed from male Sprague Dawley rats. Tissue pieces were placed in explant culture in RPMI supplemented with fetal bovine serum (FBS). […] Non-goblet cells, predominantly fibroblasts, were removed by scraping. Goblet cells were allowed to grow and proliferate for several days. Cells were removed from the tissue culture vessel by trypsin treatment. The number of cells was counted using a coulter counter. For measurement of proliferation 200 cells were seeded onto 96 well plates. Cells were allowed to attach and proliferate until a sparsely confluent level was obtained, about two days.
Goblet cells from passage 1 or 2 cultured as above were used for measurement of proliferation. Cells were plated at 200 cells/well. Cells were serum-starved for 24 or 48 hrs. Test compounds in varying concentrations were added to each cell well for 24 hrs. The positive control for proliferation was the addition of 10% FBS, a known maximal stimulator of proliferation. Proliferation was terminated by the removal of medium.

[2] = tested on: rat conjunctival goblet cells; assay: Goblet cell proliferation, Ki-67/UEA-1/DAPi immunofluorescence assay (Example 3B); assay type: cell-based; conditions: 24 hours; concentration most effective in the fluorescence assay (FBS 10%)
Source text: Conjunctival tissue from the fomical area and the nictitating membranes were removed from male Sprague Dawley rats. Tissue pieces were placed in explant culture in RPMI supplemented with fetal bovine serum (FBS). Over several days cells grew out of the explant and proliferated. Non-goblet cells, predominantly fibroblasts, were removed by scraping. Goblet cells were allowed to grow and proliferate for several days. Cells were removed from the tissue culture vessel by trypsin treatment. The number of cells was counted using a coulter counter. For measurement of proliferation 200 cells were seeded onto 96 well plates. […]
B. Immunofluorescence Assay This assay was used to confirm the results from the fluorescence assay. […]
Ki-67 was detected with a rhodamine secondary antibody using a filter that measures excitation wavelengths from 530-560 nm. UEA-1, which stains goblet cells, was directly conjugated to fluorescein isothyocyanate (FITC) and was detected using a filter that measures excitation wavelengths from 450-490 nm. DAPi, which stains the nuclei of all cells, was detected using a filter that measures excitation wavelengths from 400-418 nm. The percentage of proliferating goblet cells is determined by dividing the number of Ki-67 positive goblet cells by the total number of cells and multiplying by 100. […]

Molecule: Galectin-1: recombinant galectin, mono-CRD carbohydrate-binding protein, obtained from Cell Services, Massachusetts, 98% pure
- dose dependence of effect on goblet cell proliferation ([1]; 0.1 μg/ml to 5 μg/ml): appeared to be dose dependent
- effect on goblet cell proliferation ([1]; 0.1 μg/ml to 5 μg/ml): both galectins stimulated goblet cell proliferation
- goblet cell proliferation, Ave. fold ([1]; 0.1 ug/ml): 1.0 fold
- goblet cell proliferation, fold of basal, rat101 ([1]; 0.1 ug/ml): 1.1 fold
- goblet cell proliferation, fold of basal, rat102 ([1]; 0.1 ug/ml): 1.0 fold
- goblet cell proliferation, fold of basal, rat103 ([1]; 0.1 ug/ml): 1.0 fold
- goblet cell proliferation, Ave. fold ([1]; 0.5 ug/ml): 1.0 fold
- goblet cell proliferation, fold of basal, rat101 ([1]; 0.5 ug/ml): 1.1 fold
- goblet cell proliferation, fold of basal, rat102 ([1]; 0.5 ug/ml): 1.0 fold
- goblet cell proliferation, fold of basal, rat103 ([1]; 0.5 ug/ml): 1.0 fold
- goblet cell proliferation, Ave. fold ([1]; 1.0 ug/ml): 1.0 fold
- goblet cell proliferation, fold of basal, rat101 ([1]; 1.0 ug/ml): 1.1 fold
- goblet cell proliferation, fold of basal, rat102 ([1]; 1.0 ug/ml): 1.0 fold
- goblet cell proliferation, fold of basal, rat103 ([1]; 1.0 ug/ml): 1.0 fold
- goblet cell proliferation, Ave. fold ([1]; 2.0 ug/ml): 1.2 fold
- goblet cell proliferation, fold of basal, rat101 ([1]; 2.0 ug/ml): 1.5 fold
- goblet cell proliferation, fold of basal, rat102 ([1]; 2.0 ug/ml): 1.2 fold
- goblet cell proliferation, fold of basal, rat103 ([1]; 2.0 ug/ml): 1.1 fold
- goblet cell proliferation, Ave. fold ([1]; 5.0 ug/ml): 1.3 fold
- goblet cell proliferation, fold of basal, rat101 ([1]; 5.0 ug/ml): 1.4 fold
- goblet cell proliferation, fold of basal, rat102 ([1]; 5.0 ug/ml): 1.4 fold
- goblet cell proliferation, fold of basal, rat103 ([1]; 5.0 ug/ml): 1.2 fold

Molecule: CC(C)NCC(O)c1ccc(O)c(O)c1 (stereo not shown) [Isoproterenol, reference compound]
- effect on goblet cell proliferation ([1]; 10^−7 to 10^−3 M, likely due to interference with the assay): did not increase proliferation

Molecule: Heregulin
- stimulation of goblet cell proliferation compared to control (no additions) [1]: more than 2 fold

Molecule: CCCCCCCCCCCCCC(=O)O[C@@H]1[C@@H](C)[C@@]2(O)[C@@H](C=C(CO)C[C@]3(O)C(=O)C(C)=C[C@@H]23)[C@@H]2C(C)(C)[C@]12OC(C)=O [PMA, Phorbol myristic acid, reference compound]
- effect on goblet cell proliferation ([1]; 10^−8M, solubilized in less than 1% DMSO, compared to no additions): did not stimulate cell proliferation

Molecule: bFGF: Basic fibroblast growth factor, also referred to as FGF-2
- proliferation (Ki-67 positive goblet cells as percentage of total cells) [2]: 70%
- effect on goblet cell proliferation ([1]; 10-20 ng/ml, similar to PDGF (2-fold)): had similar effects

Molecule: PDGF
- increase in goblet cell proliferation compared to no additions ([1]; 5 to 25 ng/ml): 2 fold

Molecule: Galectin-3: recombinant galectin with single CRD domain and extended N-terminal region, obtained from Cell Services, Massachusetts, 98% pure
- dose dependence of effect on goblet cell proliferation ([1]; 0.1 μg/ml to 5 μg/ml): appeared to be dose dependent
- effect on goblet cell proliferation ([1]; 0.1 μg/ml to 5 μg/ml): both galectins stimulated goblet cell proliferation
- goblet cell proliferation, Ave. fold ([1]; 0.1 ug/ml): 1.0 fold
- goblet cell proliferation, fold of basal, rat101 ([1]; 0.1 ug/ml): 1.0 fold
- goblet cell proliferation, fold of basal, rat102 ([1]; 0.1 ug/ml): 0.9 fold
- goblet cell proliferation, fold of basal, rat103 ([1]; 0.1 ug/ml): 1.0 fold
- goblet cell proliferation, Ave. fold ([1]; 0.5 ug/ml): 1.1 fold
- goblet cell proliferation, fold of basal, rat101 ([1]; 0.5 ug/ml): 1.3 fold
- goblet cell proliferation, fold of basal, rat102 ([1]; 0.5 ug/ml): 1.0 fold
- goblet cell proliferation, fold of basal, rat103 ([1]; 0.5 ug/ml): 1.0 fold
- goblet cell proliferation, Ave. fold ([1]; 1.0 ug/ml): 1.2 fold
- goblet cell proliferation, fold of basal, rat101 ([1]; 1.0 ug/ml): 1.3 fold
- goblet cell proliferation, fold of basal, rat102 ([1]; 1.0 ug/ml): 1.1 fold
- goblet cell proliferation, fold of basal, rat103 ([1]; 1.0 ug/ml): 1.0 fold
- goblet cell proliferation, Ave. fold ([1]; 2.0 ug/ml): 1.3 fold
- goblet cell proliferation, fold of basal, rat101 ([1]; 2.0 ug/ml): 1.5 fold
- goblet cell proliferation, fold of basal, rat102 ([1]; 2.0 ug/ml): 1.3 fold
- goblet cell proliferation, fold of basal, rat103 ([1]; 2.0 ug/ml): 1.1 fold
- goblet cell proliferation, Ave. fold ([1]; 5.0 ug/ml): 1.4 fold
- goblet cell proliferation, fold of basal, rat101 ([1]; 5.0 ug/ml): 1.8 fold
- goblet cell proliferation, fold of basal, rat102 ([1]; 5.0 ug/ml): 1.2 fold
- goblet cell proliferation, fold of basal, rat103 ([1]; 5.0 ug/ml): 1.1 fold

Molecule: HGF: hepatocyte growth factor
- effect on goblet cell proliferation ([1]; 15-40 ng/ml): Neither hepatocyte growth factor (HGF, 15-40 ng/ml) nor keratinocyte growth factor (KGF, 10-30 ng/ml), at any of the concentrations used, stimulated cell proliferation

Molecule: transforming growth factor (TGF)α: EGF family growth factor that activates ErbB-1 receptors
- stimulation of goblet cell proliferation compared to control (no additions) [1]: about two

Molecule: CCCC(=O)Nc1ncnc2c1ncn2[C@@H]1O[C@@H]2COP(=O)(O)O[C@H]2[C@H]1OC(=O)CCC [butyryl cAMP, dibutyryl cAMP, reference compound]
- effect on goblet cell proliferation ([1]; 10^−6 to 10^−3 M): did not increase proliferation at the concentrations tested

Molecule: CC(C)Cn1c(=O)c2[nH]cnc2n(C)c1=O [1-isobutyl-3methylxanthine, reference compound]
- effect on goblet cell proliferation ([1]; 10^−6 to 10^−3 M): did not increase proliferation at the concentrations tested

Molecule: CCCC(=O)O[C@@H]1[C@@H](C)[C@@]2(O)[C@@H](C=C(CO)C[C@]3(O)C(=O)C(C)=C[C@@H]23)[C@@H]2C(C)(C)[C@]12OC(=O)CCC [phorbol dibutyrate β isoform, phorbol dibutyrate, reference compound]
- effect on goblet cell proliferation ([1]; concentrations not greater than 10^−7 M, solubilized in DMSO): Neither isoform increased proliferation except at high concentrations
- effect on goblet cell proliferation ([1]; high concentrations, greater than 10^−7 M, effect not mediated by PKC): both isoforms increased proliferation

Molecule: EGF: epidermal growth factor, activates ErbB-1 receptors
- proliferation (Ki-67 positive goblet cells as percentage of total cells) [2]: 40%
- stimulation of goblet cell proliferation compared to control (no additions) [1]: about two

Molecule: C[N+](C)(C)CCOC(N)=O [Carbachol, reference compound]
- effect on goblet cell proliferation ([1]; 10^−6 to 10^−3 M): did not increase cell proliferation at any concentration

B1: HB-EGF: Heparin binding-EGF, binds to ErbB-1 and ErbB-3 receptors (protein, UniProt Q99075 63-148, looked up)
Heparin-binding EGF-like …: DLQEADLDLLRVTLSSKPQALATPNKEEHGKRKKKGKGLGKKRDPCLRKYKDFCIHGECKYVKELRAPSCICHPGYHGERCHGLSL
- stimulation of goblet cell proliferation compared to control (no additions) [1]: 2 fold

B2: KGF: keratinocyte growth factor (protein, UniProt P21781 32-194, looked up)
Fibroblast growth factor 7: CNDMTPEQMATNVNCSSPERHTRSYDYMEGGDIRVRRLFCRTQWYLRIDKRGKVKGTQEMKNNYNIMEIRTVAVGIVAIKGVESEFYLAMNKEGKLYAKKECNEDCNFKELILENHYNTYASAKWTHNGGEMFVALNQKGIPVRGKKTKKEQKTAHFLPMAIT
- effect on goblet cell proliferation ([1]; 10-30 ng/ml): Neither hepatocyte growth factor (HGF, 15-40 ng/ml) nor keratinocyte growth factor (KGF, 10-30 ng/ml), at any of the concentrations used, stimulated cell proliferation
